Reference: patent US11517591B2, “Immunogenic peptides specific to BCMA and TACI antigens” (Dana-Farber Cancer Institute, Inc., priority 2017, dated 2022)

Columns and labels:
HLA-A2 molecule = biological target: T1, HLA-A2 molecule (Homo sapiens, UniProt P04439, D140Y/D185E/D98H/E176V/E277Q/G131W/G231S/I119V/I121R/I166T/I218V/L300P/L318F/N151K/N90K/P208A/P217A/Q86G/Q94H/R138H/R169H/T345S); experiment: HLA-A2 binding affinity assay on peptide-pulsed T2 cells (HLA-A2 up-regulation, flow cytometry MFI)
T1 construct: endogenous in cells; host or cells: T2 cell line (human B and T cell hybrid), provided by Dr. J. Molldrem
Procedure: The listed BCMA peptides were evaluated for HLA-A2-specific binding capacity using the T2 cell line. In the assay, T2 cells were washed, resuspended in serum-free AIM-V medium to a final concentration of 1×10^6 cells/ml and transferred into wells of a 24-well tissue culture plate. The cells were pulsed with different concentrations of respective BCMA peptide (0-200 μg/ml) plus 3 μg/ml human β2-microglobulin (Sigma) and incubated at 37° C., 5% CO2 in humidified air. Following overnight incubation, the cells were washed, stained with mouse anti-human HLA-A2-FITC mAb for 15 minutes at 4° C., washed and analyzed using a FACSort™ flow cytometer with CellQuest™ v2.1 software (Becton Dickinson, San Jose, Calif.). […] Among the BCMA peptides evaluated, “#4. […] (FIG. 2).
T2 cells were pulsed overnight with various doses of peptide plus β2-microglobulin (3 μg/ml) (Sigma, St Louis, Mo.). Following overnight incubation, the cells were stained with HLA-A2-PE mAb and analyzed using a FACSCanto™ flow cytometer (BD). Peptide/HLA-A2 complex stability was measured on peptide loaded T2 cells at 0, 2, 4, 6 and 14 hours post-brefeldin A treatment by staining with HLA-A2-PE mAb and flow cytometric analysis.
T2 cells were pulsed overnight with various concentrations of peptide plus β2-microglobulin (3 μg/ml) (Sigma, St Louis, Mo.). Following overnight incubation, the cells were stained with HLA-A2-PE mAb and analyzed using a FACSCanto™ flow cytometer (BD). The stability of peptide/HLA-A2 complex binding was measured on peptide loaded T2 cells at 0, 2, 4, 6 and 14 hours post-brefeldin A treatment followed by staining with HLA-A2-PE mAb and flow cytometric analysis.

[1] = tested on: CD3+ T cells obtained from HLA-A2+ donors; experiment: Induction and phenotypic analysis of peptide-specific CTL by repeated peptide stimulation; assay type: cell-based, human
Procedure: The peptide-specific CTL were generated from different HLA-A2^+ normal donors for the evaluation of the functional activities targeting MM cell lines. To generate the peptide-specific CTL, mature dendritic cells (mDC) generated from the same donor were resuspended in serum-free AIM-V media and pulsed with 50 μg/ml of the Heteroclitic #4 BCMA72-80 (YLMFLLRKI (SEQ ID NO: 13)) peptide or “Heteroclitic #3 TACI154-162 (YLSADQVAL (SEQ ID NO: 16))” peptide, overnight at 37° C., 5% CO2 in humidified air. The peptide-pulsed mDC were washed, counted, irradiated at 10 Gy and used to prime CD3^+ T cells at a 1:20 antigen-presenting cells/peptide-to-CD3^+ T cell ratio in AIM-V media supplemented with 10% human AB serum. […] To maintain the T cells ex vivo, IL-2 (50 U/ml) was added to the cultures two days after the second stimulation. Control T cell cultures were maintained under the same culture conditions in the presence of IL-2 (50 U/ml), but without peptide stimulation. Phenotype of the resulting CTL was evaluated one week after each cycle of peptide stimulation. […] The BCMA peptide-specific CTL cultures contained a higher percentage of CD8^+ T cells (˜80%) upon 4 cycle of peptide stimulation compared to non-peptide stimulated control T cells (˜20%) (FIGS. 8A-8C).
Antigen-specific CTL can be phenotypically identified as activated/memory T cells from naïve T cells by their expression of distinct cell surface antigens. The phenotype of the BCMA-CTL were examined as potential effector cells by analyzing the phenotype of naïve and memory cells. BCMA peptide-specific CTL were generated by repeated stimulation of HLA-A2^+ normal donor's CD3^+ T cells weekly with antigen-presenting cells pulsed with 50 μg/ml heteroclitic BCMA72-80 (YLMFLLRKI (SEQ ID NO: 13)). One week after each peptide stimulation, the resulting CTL were evaluated for their phenotypic profile by flow cytometry.
BCMA peptide-specific CTL (BCMA-CTL) were generated ex vivo by repeated stimulation of CD3^+ T cells obtained from HLA-A2^+ donors with peptide-pulsed antigen-presenting cells (APC). In brief, peptide (50 μg/ml)-pulsed APC were irradiated (10 Gy) and used to stimulate T cells at a 1 APC/peptide: 20 T cell ratio. The T cell cultures were restimulated every 7 days and maintained in AIM-V medium supplemented with 10% human AB serum (BioWhittaker) in the presence of IL-2 (50 units/ml).
Phenotypic characterization was performed on BCMA-CTL after staining with Live/Dead Aqua stain kit and fluorochrome conjugated anti-human mAbs and Tetramer-PE. Alternatively, the MM and breast cancer cell lines were stained with fluorochrome-conjugated BCMA or HLA-A2 mAb. After staining, the cells were washed, fixed in 2% paraformaldehyde, and analyzed by flow cytometry.
TACI peptide-specific CTL (TACI-CTL) were generated ex vivo by repeated stimulation of enriched CD3^+ T cells obtained from HLA-A2^+ donors with peptide-pulsed antigen-presenting cells (APC). In brief, peptide (50 μg/ml)-pulsed APC were irradiated (10 Gy) and used to stimulate T cells at a 1:20 APC/peptide-to-T cell ratio. The T cell cultures were restimulated every 7 days and maintained in AIM-V medium supplemented with 10% human AB serum (BioWhittaker) in the presence of IL-2 (50 units/ml).
Phenotypic characterization was performed on the MM target cells to conform TACI expression. Phenotypic characterization was performed on the TACI-CTL after staining with Live/Dead Aqua stain kit and fluorochrome conjugated anti-human mAbs. After staining, the cells were washed, fixed in 2% paraformaldehyde, and analyzed by flow cytometry.

[2] = Donor 1, after 2 cycles of peptide stimulation
[3] = Donor 1, after 4 cycles of stimulation
[4] = Donor 1, upon 4 cycles of stimulation
[5] = Donor 2, after 2 cycles of peptide stimulation
[6] = Donor 2, after 4 cycles of stimulation
[7] = Donor 2, upon 4 cycles of stimulation

Sequence: YLMFLLRKI [heteroclitic BCMA72-80, heteroclitic BCMA peptide]
- HLA-A2 binding affinity, heteroclitic vs native peptide (HLA-A2 molecule; Example 4, FIGS. 4 and 5): increased from their native peptide
- change in HLA-A2 binding affinity of heteroclitic BCMA peptide compared to native peptide (HLA-A2 molecule; Example 12, n=3, p<0.05): highest increase in HLA-A2 binding affinity
- Naïve (CD45RO-CCR7+) within CD8+ T cells [1, 2]: 37.4%
- central memory (CM; CD45RO+CCR7+) within CD8+ T cells [1, 2]: 32.1%
- central memory (CM) within CD8+ T cells [1, 3]: 44.2%
- effector memory (EM; CD45RO+CCR7-) within CD8+ T cells [1, 3]: 54.6%
- frequency of memory CD3+CD8+ T cells [1, 4]: 86%
- frequency of naive CD3+CD8+ T cells [1, 4]: 2%
- Naïve (CD45RO-CCR7+) within CD8+ T cells [1, 5]: 19.0%
- central memory (CM) within CD8+ T cells [1, 5]: 49.6%
- central memory (CM) within CD8+ T cells [1, 6]: 18.3%
- effector memory (EM) within CD8+ T cells [1, 6]: 77.6%
- frequency of memory CD3+CD8+ T cells [1, 7]: 92%
- frequency of naive CD3+CD8+ T cells [1, 7]: 2%
- frequency of effector memory (CD45RO+/CCR7-) CD3+CD8+ T cells ([1]; after 4 cycles of peptide stimulation): increased
- percentage of CD8+ T cells in peptide-specific CTL cultures ([1]; upon 4 cycle of peptide stimulation, 50 μg/ml): ~80%
